Assay results reported in US20230123334A1, “AMINO LIPID COMPOUND, PREPARATION METHOD THEREFOR, AND APPLICATION THEREOF” (SHENZHEN SHENXIN BIOTECHNOLOGY CO., LTD., priority 2020, published 2023).

tested on: HEK293 cells; experiment: Preliminary screening as mRNA vectors, EGFP mRNA transfection of HEK293 cells; format: cell-based; details: EGFP mRNA 50 ng per well, 96-well plates; percentage of GFP fluorescent cells relative to total number of cells (Hoechst)
How it was run: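 Screening format: EGFP mRNA transfection (50 ng/well) into HEK293 in 10% FBS-supplemented DMEM. Percent green fluorescent cells, normalised to Hoechst nuclear count, gave the value; Lipofectamine2000 was the reference transfectant.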

SMILES | Absolute mRNA transfection efficiency in HEK293 cells
CCCCCCCCCCCCCCCCCCSc1nc(NCCCCCCCCCCCCCCC)nc(NCCN2CCN(C)CC2)n1 [Compound D5S18N15] | 0.1%
CCCCCCCCCCCCCCCCNc1nc(NCCN2CCCCC2)nc(SCCCCCCCCCCCCCC)n1 [Compound D4S14N16] | 1.4%
CCCCCCCCCCCCN(CCCCCCCCCCCC)c1nc(NCCN(CC)CC)nc(SCCCCCCCCCC)n1 [D7S10^2N12] | 0.0%
CCCCCCCCCCCCCCCSc1nc(NCCCCCC)nc(NCCN2CCN(C)CC2)n1 [Compound D5S15N6] | 45.9%
CCCCCCCCCSc1nc(NCCCCCCC)nc(NCCN2CCCC2)n1 [Compound D3S9N7] | 1.4%
CCCCCCCCCCCCCCCCNc1nc(NCCN(C)C)nc(SCCCCCCCCCC)n1 [Compound D1S10N16] | 40.7%
CCCCCCCCCCCCCCCCCCNc1nc(NCCN2CCOCC2)nc(SCCCCCCCCCCCCCCCCCC)n1 [Compound D2S18N18] | 0.0%
CCCCCCCCSc1nc(NCC2CCN(C)CC2)nc(SCCCCCC)n1 [Compound D10S6S8] | 6.6%
CCCCCCCCCCCCCCCNc1nc(NCCN(CC)CC)nc(SCCCCCCCC)n1 [Compound D7S8N15] | 15.7%
CCCCCCCCCCCSc1nc(NCCCCCCCCC)nc(NCCN(CC)CC)n1 [Compound D7S11N9] | 5.0%
CCCCCCCCCCCCCCCCCCSc1nc(NCCCCCCCCCCCCCCCC)nc(NCCCN(C)C)n1 [Compound D6S18N16] | 0.0%
CCCCCCCCCCCCCCCNc1nc(NCCN2CCN(C)CC2)nc(SCCCCCCCCCC)n1 [Compound D5S10N15] | 1.8%
CCCCCCCCCCCCSc1nc(NCC2CCN(C)CC2)nc(N(CCCCCCCCCCCC)CCCCCCCCCCCC)n1 [D10S12^2N12] | 3.4%
CCCCCCCCCCCCCCCCCCSc1nc(NCCCCCCCCC)nc(NCCCN2CCOCC2)n1 [Compound D8S18N9] | 0.2%
CCCCCCCCSc1nc(NCCN2CCN(C)CC2)nc(SCCCCCC)n1 [Compound D5S6S8] | 8.7%
CCCCCCCCCCCCCCSc1nc(NCCCCCCC)nc(NCCN(CC)CC)n1 [Compound D7S14N7] | 36.3%
CCCCCCCCCCCCCCSc1nc(NCCN2CCOCC2)nc(SCCCCCC)n1 [Compound D2S6S14] | 6.6%
CCCCCCCCCSc1nc(NCCN(C)C)nc(SCCCCCC)n1 [Compound D1S6S9] | 2.3%
CCCCCCCCCCSc1nc(NCCCCCCC)nc(NCCN2CCN(C)CC2)n1 [Compound D5S10N7] | 3.2%
CCCCCCCCCCCCCCCSc1nc(NCCN(C)C)nc(SCCCCCC)n1 [Compound D1S6S15] | 1.2%
CCCCCCCCCCSc1nc(NCCCCCCC)nc(NCCN(C)C)n1 [Compound D1S10N7] | 0.2%
CCCCCCCCCNc1nc(NCCN2CCCCC2)nc(SCCCCCCC)n1 [Compound D4S7N9] | 4.9%
CCCCCCNc1nc(NCCN2CCN(C)CC2)nc(SCCCCCC)n1 [Compound D5S6N6] | 2.1%

SMILES | Absolute mRNA transfection efficiency in HEK293 cells
CCCCCCCCCCCCCCCCNc1nc(NCC2CCN(C)CC2)nc(SCCCCCCC)n1 [Compound D10S7N16] | 44.3%
CCCCCCCCCCCNc1nc(NCCN(CC)CC)nc(SCCCCCCCCC)n1 [Compound D7S9N11] | 36.8%
CCCCCCCSc1nc(NCCCCCC)nc(NCCN2CCOCC2)n1 [Compound D2S7N6] | 1.2%
CCCCCCCCCCCCCCCCCCSc1nc(NCCCCCC)nc(NCCCN2CCN(C)CC2)n1 [Compound D9S18N6] | 55.4%
CCCCCCCCCCCCCCCCCCSc1nc(NCCCCCC)nc(NCCCN(C)C)n1 [Compound D6S18N6] | 74.8%
CCCCCCCCCCCCCCCCSc1nc(NCCCCCC)nc(NCCN2CCN(C)CC2)n1 [Compound D5S16N6] | 63.2%
CCCCCCCCCSc1nc(NCCN2CCCCC2)nc(SCCCCCCCC)n1 [Compound D4S8S9] | 14.3%
CCCCCCCCCCCCCCCCSc1nc(NCCCCCCCCCCCC)nc(NCCN2CCN(C)CC2)n1 [Compound D5S16N12] | 3.4%
CCCCCCCCCCCCCCCNc1nc(NCCN2CCOCC2)nc(SCCCCCCC)n1 [Compound D2S7N15] | 3.1%
CCCCCCCCCCCCCCSc1nc(NCCN2CCOCC2)nc(SCCCCCCC)n1 [Compound D2S7S14] | 11.0%
CCCCCCCCSc1nc(NCCCCCCC)nc(NCCN(C)C)n1 [Compound D1S8N7] | 2.0%
CCCCCCCCCCCCN(CCCCCCCCCCCC)c1nc(NCCN2CCCCC2)nc(SCCCCCCCCC)n1 [D4S9^2N12] | 0.1%
CCCCCCCCCCCCCCCCCCSc1nc(NCCN2CCOCC2)nc(SCCCCCC)n1 [Compound D2S6S18] | 12.1%
CCCCCCCCCCCCN(CCCCCCCCCCCC)c1nc(NCCN2CCCCC2)nc(SCCCCCCCCCC)n1 [D4S10^2N12] | 0.1%
CCCCCCCSc1nc(NCCCN(C)C)nc(SCCCCCCC)n1 [Compound D6S7S7] | 29.3%
CCCCCCCCCCCCCCCSc1nc(NCCCN(C)C)nc(SCCCCCC)n1 [Compound D6S6S15] | 47.0%
CCCCCCCCCCCCCNc1nc(NCCCN2CCOCC2)nc(SCCCCCCCCC)n1 [Compound D8S9N13] | 12.6%
CCCCCCCCCCCCCNc1nc(NCCN2CCCC2)nc(SCCCCCCCCCCC)n1 [Compound D3S11N13] | 25.9%
CCCCCCCCCCCCCCCCCCNc1nc(NCCCN2CCOCC2)nc(SCCCCCCCCCCCCCCCC)n1 [Compound D8S16N18] | 0.0%
CCCCCCCCCSc1nc(NCCCCCC)nc(NCCN(CC)CC)n1 [Compound D7S9N6] | 0.6%
CCCCCCCCCCCNc1nc(NCCN2CCCC2)nc(SCCCCCC)n1 [Compound D3S6N11] | 0.7%
CCCCCCCCCCCCSc1nc(NCCN2CCOCC2)nc(SCCCCCCC)n1 [Compound D2S7S12] | 19.2%
CCCCCCCCCCCCCCSc1nc(NCCCCCCCCC)nc(NCC2CCN(C)CC2)n1 [Compound D10S14N9] | 54.2%

SMILES | Absolute mRNA transfection efficiency in HEK293 cells
CCCCCCCCCCCCCCCCSc1nc(NCCCCCCCC)nc(NCCN(C)C)n1 [Compound D1S16N8] | 40.3%
CCCCCCCCCCCCCCCSc1nc(NCCCCCC)nc(NCC2CCN(C)CC2)n1 [Compound D10S15N6] | 18.4%
CCCCCCCCCCCCCCCCCCNc1nc(NCCCN2CCN(C)CC2)nc(SCCCCCCCCCCCCCC)n1 [Compound D9S14N18] | 0.3%
CCCCCCCCCNc1nc(NCCCN(C)C)nc(SCCCCCCCCC)n1 [Compound D6S9N9] | 19.8%
CCCCCCCCCCCCCCCNc1nc(NCCN2CCOCC2)nc(SCCCCCCCC)n1 [Compound D2S8N15] | 5.5%
CCCCCCCCCCCCCCCCCCSc1nc(NCCCCCCCC)nc(NCC2CCN(C)CC2)n1 [Compound D10S18N8] | 16.8%
CCCCCCCCNc1nc(NCCN2CCN(C)CC2)nc(SCCCCCCC)n1 [Compound D5S7N8] | 4.3%
CCCCCCCCCCCCCCCCCCNc1nc(NCCCN2CCN(C)CC2)nc(SCCCCCCCC)n1 [Compound D9S8N18] | 29.4%
CCCCCCCCCCCCNc1nc(NCCCN2CCOCC2)nc(SCCCCCCCCCCCC)n1 [Compound D8S12N12] | 0.0%
CCCCCCCCCCCCCCCCNc1nc(NCCN(CC)CC)nc(SCCCCCCCCCCCC)n1 [Compound D7S12N16] | 6.3%
CCCCCCCCCCCCCCCNc1nc(NCCN2CCCCC2)nc(SCCCCCCC)n1 [Compound D4S7N15] | 2.6%
CCCCCCCCCCCCCNc1nc(NCCN2CCCCC2)nc(SCCCCCCC)n1 [Compound D4S7N13] | 0.7%
CCCCCCCCCCSc1nc(NCCCCCCC)nc(NCCCN2CCN(C)CC2)n1 [Compound D9S10N7] | 0.8%
CCCCCCCCCCCCCCSc1nc(NCCCCCCCCCCCC)nc(NCCN2CCCCC2)n1 [Compound D4S14N12] | 12.6%
CCCCCCCCCCCCSc1nc(NCCN(C)C)nc(SCCCCCCCC)n1 [Compound D1S8S12] | 1.4%
CCCCCCCCCCCCSc1nc(NCCCCCCCC)nc(NCCN(C)C)n1 [Compound D1S12N8] | 11.3%
CCCCCCCCCCCNc1nc(NCCN2CCCCC2)nc(SCCCCCC)n1 [Compound D4S6N11] | 0.9%
CCCCCCCCCCCCCCCCCCSc1nc(NCCCCCCCCCCCCCCC)nc(NCCN2CCCC2)n1 [Compound D3S18N15] | 0.1%
CCCCCCCCCCCCCCCNc1nc(NCCCN2CCOCC2)nc(SCCCCCCCCCCC)n1 [Compound D8S11N15] | 0.5%
CCCCCCCCCCCCCCCCSc1nc(NCCCN(C)C)nc(SCCCCCCC)n1 [Compound D6S7S16] | 90.8%
CCCCCCNc1nc(NCCN2CCCC2)nc(SCCCCCC)n1 [Compound D3S6N6] | 0.1%
